# Data from patent US9790218B2, “Small molecule activators of calcium-activated chloride channels and methods of use” (The Regents of the University of California, priority 2011, dated 2017).
# Legend:
# Assay type in all cases: cell-based
# CFTR = biological target: T1, CFTR (Homo sapiens, UniProt P13569); assay: CFTR conductance in FRT cells expressing wild type CFTR and YFP indicator; conditions: 10 μM, 5 min pretreatment; forskolin 10 μM
# T1 construct: expressed in transfected cells; host or cells: FRT cells co-expressing a YFP halide indicator
# Protocol: (§1) FIG. 2A-E. Characterization of TMEM16A activators. FIG. 2A. Cytoplasmic calcium measured by Fluo-4 fluorescence. 100 μM ATP (gray line) or 10 μM of indicated TMEM16A activators were added at the arrow. FIG. 2B. Apical membrane current measured in TMEM16A-expressing FRT cells in the presence of a transepithelial chloride gradient and after basolateral membrane permeabilization. […] T16Ainh-A01 (10 μM) added where indicated. […] (right) Concentration-activation data summary (mean±S.E., n=4-6). FIG. 2C. Synergistic effect of Eact and Fact. (left and center) Representative current traces showing synergy. (right) Data summary of low doses of TMEM16A activation (mean±S.E., n=5, * P<0.05). FIG. 2D. Apical membrane current measured in FRT cells transfected with mouse TMEM16A or TMEM16B. FIG. 2E. Effect of Eact and Fact on CFTR and ENaC. (left) FRT cells expressing wild type CFTR and YFP indicator were pretreated for 5 min with 10 μM Eact and Fact. Forskolin (10 μM) added as indicated. (right) HBE cells were pre-treated for 5 min with 10 μM Eact and Fact, with amiloride (10 μM) added as indicated.
# TMEM16A = biological target: T2, TMEM16A (Homo sapiens, UniProt Q5XXA6, DEL476-501); assay: Fluorescence plate reader assay of TMEM16A-mediated I^− influx (YFP halide sensor)
# T2 construct: expressed in transfected cells
# T2 sequence (Q5XXA6 with tags, fused parts or gaps isoform Q5XXA6-5 DEL539-564): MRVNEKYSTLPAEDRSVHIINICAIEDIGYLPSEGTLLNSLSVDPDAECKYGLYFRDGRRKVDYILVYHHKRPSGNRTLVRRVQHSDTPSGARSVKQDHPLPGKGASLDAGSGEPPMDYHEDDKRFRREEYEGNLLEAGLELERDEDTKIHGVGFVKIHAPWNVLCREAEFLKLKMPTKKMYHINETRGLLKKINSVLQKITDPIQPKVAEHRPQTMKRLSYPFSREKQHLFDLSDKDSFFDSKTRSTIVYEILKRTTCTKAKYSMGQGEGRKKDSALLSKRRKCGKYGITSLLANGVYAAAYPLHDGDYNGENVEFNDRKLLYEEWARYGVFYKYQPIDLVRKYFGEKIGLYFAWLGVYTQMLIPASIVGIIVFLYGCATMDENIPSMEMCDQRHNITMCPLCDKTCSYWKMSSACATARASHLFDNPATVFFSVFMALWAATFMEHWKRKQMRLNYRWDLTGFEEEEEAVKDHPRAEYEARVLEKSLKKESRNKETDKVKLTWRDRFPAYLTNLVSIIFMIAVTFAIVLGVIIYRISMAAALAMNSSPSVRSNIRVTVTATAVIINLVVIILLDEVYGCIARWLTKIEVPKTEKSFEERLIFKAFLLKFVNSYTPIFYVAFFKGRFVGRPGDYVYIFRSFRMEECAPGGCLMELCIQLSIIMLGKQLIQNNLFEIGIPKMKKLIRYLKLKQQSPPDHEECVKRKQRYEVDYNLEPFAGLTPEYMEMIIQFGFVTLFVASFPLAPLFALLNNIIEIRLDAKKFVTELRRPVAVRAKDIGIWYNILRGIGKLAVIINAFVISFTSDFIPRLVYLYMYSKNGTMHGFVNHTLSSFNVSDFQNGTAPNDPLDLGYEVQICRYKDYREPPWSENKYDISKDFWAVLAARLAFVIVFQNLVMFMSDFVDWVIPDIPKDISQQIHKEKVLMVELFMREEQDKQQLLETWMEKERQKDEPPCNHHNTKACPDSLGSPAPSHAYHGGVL
# Protocol: FRT cells were stably transfected with human TMEM16A (TMEM16A(abc), cDNA provided by Dr. Luis Galietta, Gaslini Institute, Genoa, Italy) and the halide sensor YFP-H148Q/1152L/F46L. Cells were plated in 96-well black-walled microplates (Corning Inc., Corning, N.Y.) at a density of 20,000 cells per well in Coon's modified F12 medium supplemented with 5% fetal calf serum, 2 mM L-glutamine, 100 U/mL penicillin and 100 μg/mL streptomycin. The human submandibular cell line A253 (ATCC HTB 41) was cultured in complete McCoy's 5A medium supplemented with 10% fetal bovine serum, 100 U/mL penicillin and 100 μg/mL streptomycin.
# TMEM16A activators were identified from screening of ˜110,000 synthetic drug-like compounds, purified natural products and approved/investigational drugs. The cell-based screen employs FRT cells coexpressing human TMEM16A and the I^−-sensing yellow fluorescent protein YFP-H148Q/1152L/F46L. FRT cells were chosen because of their low basal I^− and Cl^− transport, rapid growth on uncoated plastic, strong stable expression of transfected proteins, and formation of tight junctions for measurements of transepithelial short-circuit current (Ma et al., supra).
# High-throughput screening was done using an automated screening platform (Beckman) equipped with FluoStar fluorescence plate readers (BMG Lab Technologies, Durham, N.C.) as described (Ma et al., supra). Each well of a 96-well plate was washed 3 times with PBS (200 μL/wash), leaving 50 μL PBS. Test compounds (0.5 μL) were added to each well at […]. After 10 min, 96-well plates were transferred to a plate reader for fluorescence assay. Each well was assayed individually for TMEM16A-mediated I^− influx by recording fluorescence continuously (400 ms per point) for 2 s (baseline), then 50 μL of a 140 mM I^− solution was added. The initial rate of I^− influx was computed from fluorescence data by non-linear regression.
# As diagrammed in FIG. 1A, test compounds at 25 μM final concentration were added 10 min prior to I^− addition. The 10 min incubation was chosen to allow for compound transport into cytoplasm and to minimize false positives from compounds that elevate cytoplasmic Ca^2+ transiently. Fluorescence from individual wells of 96-well plates was measured just prior to and for 6 s after I^− addition for computation of initial I^− influx rate.
# [1] = test system: cytoplasmic Ca^2+ in FRT cells; assay: Cytoplasmic calcium measured by Fluo-4 fluorescence; conditions: 10 μM activator
# Protocol: as §1
# FRT cells in 96-well black-walled microplates were loaded with Fluo-4 NW per the manufacturer's protocol (Invitrogen, Carlsbad, Calif.). Fluo-4 fluorescence was measured with a FLUOstar Optima fluorescence plate reader equipped with syringe pumps and custom Fluo-4 excitation/emission filters (485/538 nm).
# T1 sequence (P13569 whole entry): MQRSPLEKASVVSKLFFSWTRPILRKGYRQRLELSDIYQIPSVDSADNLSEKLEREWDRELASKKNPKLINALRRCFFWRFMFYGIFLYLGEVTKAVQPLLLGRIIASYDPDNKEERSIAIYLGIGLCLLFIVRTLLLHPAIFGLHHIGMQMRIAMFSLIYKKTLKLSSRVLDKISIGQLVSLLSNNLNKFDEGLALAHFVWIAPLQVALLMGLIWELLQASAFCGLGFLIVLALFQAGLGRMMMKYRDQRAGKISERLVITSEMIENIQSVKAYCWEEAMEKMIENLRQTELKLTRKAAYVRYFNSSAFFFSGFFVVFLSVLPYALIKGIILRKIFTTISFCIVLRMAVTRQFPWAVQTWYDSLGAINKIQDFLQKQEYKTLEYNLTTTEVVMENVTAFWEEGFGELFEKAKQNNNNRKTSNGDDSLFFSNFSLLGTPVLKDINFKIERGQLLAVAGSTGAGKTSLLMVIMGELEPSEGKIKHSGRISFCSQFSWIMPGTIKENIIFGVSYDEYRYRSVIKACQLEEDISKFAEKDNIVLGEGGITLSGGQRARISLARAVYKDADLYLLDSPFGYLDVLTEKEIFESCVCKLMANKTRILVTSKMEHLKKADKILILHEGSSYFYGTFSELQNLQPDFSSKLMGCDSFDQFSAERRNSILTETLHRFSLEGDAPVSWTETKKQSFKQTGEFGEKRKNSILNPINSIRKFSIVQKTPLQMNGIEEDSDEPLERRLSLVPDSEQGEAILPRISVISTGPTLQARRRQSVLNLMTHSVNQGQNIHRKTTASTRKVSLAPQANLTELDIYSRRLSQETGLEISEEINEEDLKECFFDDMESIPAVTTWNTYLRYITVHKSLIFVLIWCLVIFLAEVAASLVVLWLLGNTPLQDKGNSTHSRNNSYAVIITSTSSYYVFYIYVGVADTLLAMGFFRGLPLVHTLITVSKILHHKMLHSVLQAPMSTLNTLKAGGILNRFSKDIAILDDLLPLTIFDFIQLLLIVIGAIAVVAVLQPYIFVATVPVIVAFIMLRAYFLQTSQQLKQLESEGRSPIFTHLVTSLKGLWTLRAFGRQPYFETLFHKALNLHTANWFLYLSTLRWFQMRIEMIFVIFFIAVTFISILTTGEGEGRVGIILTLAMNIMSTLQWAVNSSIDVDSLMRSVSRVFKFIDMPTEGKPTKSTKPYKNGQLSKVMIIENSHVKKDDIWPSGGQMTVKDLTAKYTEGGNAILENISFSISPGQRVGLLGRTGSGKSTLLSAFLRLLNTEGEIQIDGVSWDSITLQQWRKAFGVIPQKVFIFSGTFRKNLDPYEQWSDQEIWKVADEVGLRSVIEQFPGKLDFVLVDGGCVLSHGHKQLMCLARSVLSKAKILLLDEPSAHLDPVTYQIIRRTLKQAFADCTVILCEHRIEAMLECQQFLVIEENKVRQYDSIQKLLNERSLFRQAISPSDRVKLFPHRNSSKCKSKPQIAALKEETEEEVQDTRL
structure (smiles),measurement,setting,value
"O=C(Nc1ccc(Br)cc1)c1cccc(-n2cnnn2)c1 [Fact, N-(4-bromophenyl)-3-(1H-tetrazol-1-yl)benzamide]",effect on CFTR conductance,CFTR,Neither Eact nor Fact affected
same,EC50,TMEM16A,37 µM
same,"TMEM16A conductance, F class SAR",TMEM16A; synthesized F class analogs,increased TMEM16A conductance
same,effect on cytoplasmic Ca^2+,[1],did not elevate Ca^2+
